In one test the test system is soluble epoxide hydrolase (sEH). As to the kind of experiment: Fluorescent assay for soluble epoxide hydrolase (CMNPC substrate), percent inhibition at the recited concentration. It counts as biochemical. Conditions: Inhibition Conc. 50 nM. Put shortly:
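Purified recombinant baculovirus-expressed sEH in 25 mM Bis/Tris HCl pH 7.0 with 0.1 mg/mL BSA; inhibitor serially diluted and preincubated with enzyme 5 min at 30 °C. Reaction started with 5 μM (final) substrate; fluorescence (ex 330/em 465 nm) read every 30 s for 10 min, and velocities give % inhibition.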
For the compound `Cc1ccccc1S(=O)(=O)N1CCC(NC(=O)NC23CC4CC(CC(C4)C2)C3)CC1` [Compound 7-33, 1-adamantyl-3-(1-(o-tolylsulfonyl)piperidin-4-yl)urea], the “% inh.” value is reported as 99%.

`O=C(NC1CCN(S(=O)(=O)c2ccccc2C(F)(F)F)CC1)NC12CC3CC(CC(C3)C1)C2` [Compound 7-32, 1-adamantyl-3-(1-(2-(trifluoromethyl)phenylsulfonyl)piperidin-4-yl)urea]: the “% inh.” value amounted to 97%.

As for `O=C(NC1CCN(S(=O)(=O)c2ccccc2)CC1)NC12CC3CC(CC(C3)C1)C2` [Compound 7-26, 1-adamantyl-3-(1-(phenylsulfonyl)piperidin-4-yl)urea], the “% inh.” value is given as 97%.

Take `NS(=O)(=O)c1ccc(C(=O)N2CCC(NC(=O)NC34CC5CC(CC(C5)C3)C4)CC2)cc1` [Compound 4-3, 4-(4-(3-(1-adamantyl)ureido)-piperidine-1-carbonyl)benzene-sulfonamide]: the “% inh.” value came to 93%.

On to `CC(C)(C)c1ccc(S(=O)(=O)N2CCC(NC(=O)NC34CC5CC(CC(C5)C3)C4)CC2)cc1` [Compound 7-30, 1-(1-(4-tert-butylphenylsulfonyl)piperidin-4-yl)-3-adamantylurea], for which the “% inh.” value is listed as 97%.

For the compound `O=C(NC1CCN(c2ccccc2)CC1)NC12CC3CC(CC(C3)C1)C2` [Compound 2-3, 1-(1-adamantyl)-3-(1-phenylpiperidin-4-yl)urea], the “% inh.” value worked out at 98%.

As for `CNS(=O)(=O)c1ccc(C(=O)N2CCC(NC(=O)Nc3ccc(C(F)(F)F)cc3)CC2)cc1` [Compound 4-7, 4-(4-(3-(4-(trifluoromethyl)phenyl)ureido)piperidine-1-carbonyl)-N-methylbenzene-sulfonamide], the “% inh.” value amounted to 92%.

For `CNS(=O)(=O)c1cccc(C(=O)N2CCC(NC(=O)Nc3ccc(OC(F)(F)F)cc3)CC2)c1` [Compound 4-10, N-methyl-3-(4-(3-(4-(trifluoromethoxy)-phenyl)ureido)-piperidine-1-carbonyl)benzene-sulfonamide], the “% inh.” value is 93%.

As to `CNS(=O)(=O)c1ccc(C(=O)N2CCC(NC(=O)NC34CC5CC(CC(C5)C3)C4)CC2)cc1` [Compound 4-8, 4-(4-(3-(1-adamantyl)ureido)-piperidine-1-carbonyl)-N-methylbenzene-sulfonamide], the “% inh.” value was 93%.

With `CC(C)OC(=O)N1CCC(NC(=O)NC23CC4CC(CC(C4)C2)C3)CC1` [Compound 7-23, isopropyl 4-(3-(1-adamantyl)ureido)piperidine-1-carboxylate], the “% inh.” value amounted to 93%.

The test is the same for the next values; noted with them: Inhibition Conc. 200 nM.
As to `CC(C)S(=O)(=O)N1CCC(NC(=O)Nc2ccc(OC(F)(F)F)cc2)CC1` [Compound 7-55, 1-(1-(isopropylsulfonyl)piperidin-4-yl)-3-(4-(trifluoromethoxy)phenyl)urea], the “% inh.” value is 94%.

For `O=C(Nc1ccc(OC(F)(F)F)cc1)NC1CCN(C(=O)N2CCOCC2)CC1` [Compound 7-79, 1-(1-(morpholine-4-carbonyl)piperidin-4-yl)-3-(4-(trifluoromethoxy)phenyl)urea], the “% inh.” value is listed as 98%.

Turning to `O=C(NC1CCN(C(=O)CCO)CC1)NC12CC3CC(CC(C3)C1)C2` [Compound 7-59, 1-adamantyl-3-(1-(3-hydroxypropanoyl)piperidin-4-yl)urea], the “% inh.” value is recorded as 86%.

On to `CC(C)(C)OC(=O)N1CCC(NC(=O)Nc2ccc(S(C)(=O)=O)cc2)CC1` [Compound 7-49, tert-butyl 4-(3-(4-(methylsulfonyl)phenyl)ureido)piperidine-1-carboxylate], for which the “% inh.” value is recorded as 83%.

With `CC(C)(C)C(=O)N1CCC(NC(=O)Nc2ccc(C#N)cc2)CC1` [Compound 7-81, 1-(4-cyanophenyl)-3-(1-pivaloylpiperidin-4-yl)urea], the “% inh.” value stood at 91%.

As for `CC(=O)N1CCC(NC(=O)NC23CC4CC(C2)C(F)(F)C(C4)C3)CC1` [Compound 3-10, 1-(1-acetylpiperidin-4-yl)-3-(4,4-difluoroadamantyl)urea], the “% inh.” value came out at 76%.

The test is the same for the next values; noted with them: Inhibition Conc. 500 nM.
For `CC(C)(C)OC(=O)N1CCC(NC(=O)Nc2ccc(-c3nnn[nH]3)cc2)CC1` [Compound 6-8, tert-butyl 4-(3-(4-(1H-tetrazol-5-yl)phenyl)-ureido)piperidine-1-carboxylate], the “% inh.” value came to 93%.

For the compound `O=C(NC1CCCCC1)NC1CCN(C(=O)CCCN2CCOCC2)CC1` [Compound 7-61, 1-cyclohexyl-3-(1-(4-morpholinobutanoyl)piperidin-4-yl)urea], the “% inh.” value was determined as 83%.

As to `CC(C)(C)OC(=O)N1CCC(NC(=O)Nc2ccc3cc[nH]c3c2)CC1` [Compound 6-2, tert-butyl 4-(3-1H-indol-6-yl-ureido)piperidine-1-carboxylate], the “% inh.” value was 87%.

The test is the same for the next values; noted with them: Inhibition Conc. 2000 nM.
On to `CC(=O)N1CCC(NC(=O)NC2CCS(=O)(=O)CC2)CC1` [Compound 8-5, 1-(1-acetylpiperidin-4-yl)-3-(1,1-dioxo-tetrahydro-2H-thiopyran-4-yl)urea], for which the “% inh.” value was 23%.

For `COc1ccc(CNC(=O)NC2CCN(C(C)=O)CC2)cc1OC` [Compound 1-5, 1-(1-acetylpiperidin-4-yl)-3-(3,4-dimethoxy-benzyl)urea], the “% inh.” value was 66%.

With `CC(=O)N1CCC(NC(=O)NC2CCN(C(=O)OC(C)(C)C)CC2)CC1` [Compound 8-2, tert-butyl 4-(3-(1-acetylpiperidin-4-yl)ureido)piperidine-1-carboxylate], the “% inh.” value came out at 86%.

`CC(C)(C)OC(=O)N1CCC(NC(=O)Nc2ccc(CN3CCCC3)cc2)CC1` [Compound 7-68, tert-butyl 4-(3-(4-(pyrrolidin-1-ylmethyl)phenyl)ureido)piperidine-1-carboxylate]: the “% inh.” value came to 93%.

In the case of `CC(=O)N1CCC(NC(=O)Nc2ccc3c(c2)OCCO3)CC1` [Compound 6-19, 1-(1-acetylpiperidin-4-yl)-3-(2,3-dihydrobenzo[b][1,4]dioxin-6-yl)urea], the “% inh.” value is 87%.

On to `CN(C)c1ccc(NC(=O)NC2CCN(C(=O)OC(C)(C)C)CC2)cc1` [Compound 7-65, tert-butyl 4-(3-(4-(dimethylamino)phenyl)ureido)piperidine-1-carboxylate], for which the “% inh.” value is 95%.

Consider `CC(=O)N1CCC(NC(=O)Nc2ccc(N3CCOCC3)cc2)CC1` [Compound 7-87, 1-(1-acetylpiperidin-4-yl)-3-(4-morpholinophenyl)urea], for which the “% inh.” value stood at 0%.

Still in this test, the particulars now being: Inhibition Conc. 5000 nM.
`CS(=O)(=O)N1CCC(NC(=O)NC2CCN(S(C)(=O)=O)CC2)CC1` [Compound 8-1, 1,3-bis(1-(methylsulfonyl)piperidin-4-yl)urea]: the “% inh.” value came out at 79%.

In the case of `CC(C)(C)OC(=O)N1CCC(NC(=O)Nc2ccncc2)CC1` [Compound 6-3, tert-butyl 4-(3-pyridin-4-yl-ureido)piperidine-1-carboxylate], the “% inh.” value came out at 81%.

For the compound `CC(=O)N1CCC(NC(=O)NC23CC4CC(CC(O)(C4)C2)C3)CC1` [Compound 3-2, 1-(1-acetylpiperidin-4-yl)-3-(3-hydroxyadamant-1-yl)urea], the “% inh.” value stood at 67%.

With `CC(=O)N1CCC(NC(=O)NC23CC4CC(C2)C(O)C(C4)C3)CC1` (single isomer, unassigned) [Compound 3-7], the “% inh.” value came to 81%.

On to `CC(=O)N1CCC(NC(=O)NC23CC4CC(C2)C(O)C(C4)C3)CC1` (single isomer, unassigned) [Compound 3-8], for which the “% inh.” value came to 76%.

Source of the values: US20080227780A1, “SOLUBLE EPOXIDE HYDROLASE INHIBITORS” (Arete Therapeutics, Inc., priority 2007, published 2008).
